Results from US20220380414A1, “COMPOSITIONS AND METHODS BASED ON HIV GP120 MUTANTS” (CENTRE H[…] L'UNIVERSITÉ DE MONTRÉAL, priority 2019, published 2022).
“Also recorded” adds a separate entry of the source.

Legend:
[1] = tested on: CRF01_AE Env (92TH023 and CM244 isolates) WT or mutated; assay: Cell-surface staining of HEK293T cells transfected with CRF01_AE Env expressors, Env ligand binding with or without compound; assay type: cell-based, HIV-1
Experimental: Cell-surface staining of HEK293T cells transfected with different CRF01_AE Env expressors (92TH023 and CM244 isolates) WT or their mutated counterparts together with a GFP expressor (in order to identify positively transfected cells) using a panel of Env ligands. (FIG. 4A, B) sCD4 binding in presence of BNM-III-170 (50 μM) or not (DMSO) was detected with the anti-CD4 OKT4 mAb. Binding of broadly-neutralizing antibodies (bNAbs) that preferentially recognize state 1 Env (Lu M et al. 2019. Nature 568, pages 415-419; Munro J B et al., 2014. Science 346:759-763) (FIG. 4B, E) and non-neutralizing antibodies (nnAbs) that preferentially recognize states 2/2A/3 (Alsahafi N et al., 2019. Cell Host Microbe 25:578-587, Prevost J et al., 2018. Virology 515:38-45) (FIG. 4C, F) was also performed in presence of BNM-III-170 (50 μM) or not (DMSO). Shown are the mean fluorescence intensities (MFI) obtained in presence of BNM-III-170 normalized to the MFI in absence of BNM-111-170 (DMSO) from the transfected (GFP+) population for staining obtained in at least 3 independent experiments. All MFI were normalized to MFI signals obtained with the anti-gp120 outer domain 2G12. Decrease in sCD4 signal indicates competition with BNM-III-170 (i.e., this represents an indirect measure of BNM-III-170 interaction with each Env mutant) (FIGS. 4A and D). […] Increase in nnAbs signal is consistent with the capacity of BNM-III-170 to push Env to downstream “open” states 2/3 conformations (C and F). […] Error bars indicate mean±SEM. Statistical significance was tested using an unpaired t-test (* p<0.05, ** p<0.01, *** p<0.001, **** p<0.0001, ns: non significant).
(§1) FIGS. 6A-F show the effect of Phe43 cavity and layer mutations (LM) on neutralization by small molecules known to stabilize Env State 1. Recombinant HIV-1 strains expressing luciferase and bearing wild-type or mutant CRF01_AE Envs (92TH023 and CM244 isolates) were normalized by reverse transcriptase activity. Normalized amounts of viruses were incubated with serial dilutions of BMS-626529 (Nowicka-Sans B et al. 2012. Antimicrob Agents Chemother 56:3498-3507; Pancera M et al., 2017. Nat Chem Biol 13:1115-1122) (FIG. 6A, B) or 484 (16) (FIG. 6C) at 37° C. for 1 h prior to infection of Cf2Th-CD4/CCR5 cells. Infectivity at each dilution of the compound tested is shown as the percentage of infection without the compound for each particular mutant. Quadruplicate samples were analyzed in each experiment. Data shown are the means of results obtained in at least 3 independent experiments. The error bars represent the standard deviations. (FIG. 6E, F) Cell-surface staining of 293T cells transfected with different CRF01_AE Env expressors (92TH023 and CM244 isolates) WT or their mutated counterparts together with a GFP expressor (in order to identify positively transfected cells) using sCD4. Binding of sCD4 in presence of BMS-626529 (50 μM) or not (DMSO) was detected with the anti-CD4 OKT4 mAb. Shown are the mean fluorescence intensities (MFI) obtained in presence of BNM-III-170 normalized to the MFI in absence of BNM-III-170 (DMSO) from the transfected (GFP+) population for staining obtained in at least 3 independent experiments. All MFI were normalized to 2G12 MFI for each Env mutants. Decrease in sCD4 signal indicates competition with BMS-626529 (i.e., this represents an indirect measure of BMS-626529 interaction with each Env mutant). […] Error bars indicate mean±SEM. Statistical significance was tested using an unpaired t-test (** p<0.01, ns: non significant).
To gain a better understanding of the impact that the LM and 375 changes have on Env conformation, an assay to measure sCD4 and BNM-III-170 capacity to interact with Env was developed. Briefly, CD4-negative cells were transfected with Env variants. Two days post-transfection, BNM-III-170 or the vehicle (DMSO) was added to Env-expressing cells. […]

[2] = tested on: CRF01_AE Env from a transmitted founder strain (40100 isolate) with LM+HS mutations; assay: Cell-surface staining of primary CD4+ T cells infected with SHIV expressing CRF01_AE Env, anti-Env mAb binding with compound; assay type: cell-based
Experimental: Cell-surface staining of primary CD4^+ T cells infected with SHIV expressing a CRF01_AE Env from a transmitted founder strain (40100 isolate) (Chenine A L et al., 2018. J Acquir Immune Defic Syndr 78:348-355; Kijak G H et al., 2017. PLoS Pathog 13:e1006510) mutated to harbor the LM+HS mutations using a panel of Env ligands. Binding of anti-Env mAbs preferring State 1 (PGT128, PGT145, PG9, 10-1074) (FIG. 7A-D) or preferring State 2/3 (19b, 17b) (FIG. 7E-F) was performed in presence of DMSO or increasing amount of BNM-III-170 (stabilises States 2/3 (Munro J B et al., 2014. Science 346:759-763; Alsahafi N et al., 2019. Cell Host Microbe 25:578-587: e575; Herschhorn A, et al. 2017. Nat Commun 8:1049) or BMS-626529 (stabilizes State 1, (Lu M et al. 2019. Nature 568, pages 415-419; Munro J B et al., 2014. Science 346:759-763)). Shown are the mean fluorescence intensities (MFI) obtained in presence of the compounds normalized to the MFI in absence of any compound (DMSO) from the infected (p27+) population. All MFI were normalized to 2G12 MFI for each mAb. State 1 and State 2/3 Abs were grouped in FIG. 7G and FIG. 7H, respectively.

[3] = tested on: Recombinant HIV-1 strains bearing wild-type or mutant CRF01_AE Envs (92TH023 and CM244 isolates); assay: Neutralization of recombinant luciferase HIV-1 bearing wild-type or mutant CRF01_AE Envs, infection of Cf2Th-CD4/CCR5 cells; assay type: cell-based
Experimental: J Virol 74:10690-10698). Infectivity at each dilution of sCD4 or CD4mc tested is shown as the percentage of infection without sCD4 or CD4mc for each particular mutant. Quadruplicate samples were analyzed in each experiment. Data shown are the means of results obtained in at least 3 independent experiments. The error bars represent the standard deviations. […]
as §1, with “significant). […]” for “significant).”
CD4mc were used as probes to evaluate the potential impact of the LM residues on shaping the Phe43 cavity. […] In contrast, no or very little effect was measured in recombinant viruses with mutations in the Phe43 cavity only or in the inner domain layer only.

[4] = LM+HS or LM+HT mutants of CRF01_AE Envs versus wild-type
[5] = LM+HS or LM+HT mutants, BNM-III-170 50 μM vs DMSO

COc1cnc(-n2cnc(C)n2)c2[nH]cc(C(=O)C(=O)N3CCN(C(=O)c4ccccc4)CC3)c12 [BMS-626529, temsavir]
Env conformation adopted in presence of ligand ([1]; CRF01_AE gp160 with the same six mutations combined with H375S): tend to adopt a state 1 configuration
sCD4 signal in presence of compound (competition, indirect measure of interaction with Env) ([1]; LM-HS mutant, BMS-626529 50 μM vs DMSO, detected with anti-CD4 OKT4 mAb): statistically significant decrease
Env recognition by bNAbs preferentially binding state 1 in presence of compound ([2]; increasing amount of BMS-626529 vs DMSO): enhanced Env recognition
sensitivity to neutralization [3, 4]: sensitized

CNCc1ccc2c(c1)C[C@H](CN=C(N)N)[C@H]2NC(=O)C(=O)Nc1ccc(Cl)c(F)c1.O=C(O)C(F)(F)F.O=C(O)C(F)(F)F [BNM-III-170]
Env conformation adopted in presence of ligand ([1]; CRF01_AE gp160 with H61Y, Q105H, V108I, N474D, I475M, K476R combined with H375T): tend to adopt an open state 2/3 configuration
compound-induced Env conformational changes (open conformation) [1, 5]: superior; also recorded: more susceptible
recognition by state 1 preferring bNAbs in presence of compound [1, 5]: decrease in recognition
sCD4 and nnAbs binding (open state 2/3 preferring) in presence of compound [1, 5]: increase in sCD4 and nnAbs binding
Env recognition by nnAbs preferentially binding states 2/3 in presence of compound ([2]; increasing amount of BNM-III-170 vs DMSO): enhanced Env recognition
susceptibility to neutralization ([3]; H375S combined with LM mutations (LM+HS), both CRF01_AE strains): dramatically enhanced the susceptibility
neutralization of pseudotypes ([3]; H375S mutant of both CRF01_AE Envs): did not restore neutralization sensibility
sensitivity to neutralization [3, 4]: more sensitive to neutralization
sensitivity to neutralization ([3]; different combinations of single or multiple layer mutations together with H375S): did not restore sensitivity
neutralization of viral particles ([3]; wild-type CRF01_AE Envs (92TH023 and CM244)): resistant to neutralization
